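Five compound concentrations were applied to cells in 96-well plates for 48 hours; endpoints were derived by simple linear interpolation of the resulting dose-response curve. TGI: concentration producing complete growth inhibition.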 Where a SMILES comes first, the peptide text is derived from it. The star is where a group is joined. Cbz = O=C(OCc1ccccc1)*
Assays:
Test in all cases: NCI anticancer screen, dose series, 48 h
[1] = system: ACHN renal
[2] = system: BT-549 breast
[3] = system: DU-145 prostate
[4] = system: EKVX NSCLC
[5] = system: HCT-15 colon
[6] = system: KM12 colon
[7] = system: MDA-MB-435
[8] = system: NCI-H226 lung
[9] = system: NCI-H460 lung
[10] = system: OVCAR-3 ovarian
[11] = system: PC-3 prostate
[12] = system: RXF 393 renal
[13] = system: SK-MEL-28 melanoma
[14] = system: SK-OV-3 ovarian
[15] = system: SNB-19 CNS
[16] = system: SR leukemia
[17] = system: U251 CNS
[18] = system: UACC-62 melanoma
[19] = system: UACC-257 melanoma

| SMILES | TGI [1] [µM] | TGI [2] [µM] | TGI [3] [µM] | TGI [4] [µM] | TGI [5] [µM] | TGI [6] [µM] | TGI [7] [µM] | TGI [8] [µM] | TGI [9] [µM] | TGI [10] [µM] | TGI [11] [µM] | TGI [12] [µM] | TGI [13] [µM] | TGI [14] [µM] | TGI [15] [µM] | TGI [16] [µM] | TGI [17] [µM] | TGI [18] [µM] | TGI [19] [µM] |
| --- | --- | --- | --- | --- | --- | --- | --- | --- | --- | --- | --- | --- | --- | --- | --- | --- | --- | --- | --- |
| COC(=O)C(CC(C)C)NC(=O)C(CCCN=C(N)N)NC(=O)OCc1ccccc1 (stereo not drawn) (Cbz-Arg-Leu-OMe; configuration not given here) | > 100 | > 100 | > 100 | > 100 | > 100 | > 100 | > 100 | > 100 | > 100 | > 100 | > 100 | > 100 | > 100 | > 100 | > 100 | > 100 | > 100 | > 100 |  |
| CN(/N=C/c1ccc(Cl)c(Cl)c1)C1=NCCCCN1 | > 100 | > 100 | > 100 | > 100 | 81.6 | 47.5 | 36 | 39.2 | > 100 | > 100 | > 100 |  |  | > 100 | > 100 | > 100 | > 100 | 52.8 | 50.8 |
| O=C1c2cn[nH]c2N=C(Nc2ccccc2)C1N=Cc1ccc([N+](=O)[O-])cc1 (stereo not drawn) | > 10 | > 10 | > 10 | > 10 |  | > 10 | > 10 | > 10 | > 10 | > 10 | > 10 |  |  |  | > 10 | > 10 | > 10 |  | > 10 |
| O=C(O)/C=C/c1ccc(OS(=O)(=O)O)cc1 | > 100 | > 100 | > 100 | > 100 | > 100 | > 100 | > 100 | > 100 | > 100 | > 100 | > 100 | > 100 | > 100 | > 100 | > 100 | > 100 | > 100 | > 100 | > 100 |
| C1=CCC[C@@H]2CN3CCCC/C=C\CCCC[C@H]4C[C@H](CN(CCCCCCCC1)C4)[C@H]2CC3 | 17 | 29.8 | > 50 | 21.6 | 18.3 | 15.6 | 15.7 | > 50 | 18.7 | 15.2 | 41.2 |  | 14.7 | > 50 | 22.2 | 20.1 | 15.4 | 16.9 | 18.1 |
| O=C(O)c1ccccc1/C=C1/Cc2ccc3c(c2C1=O)CCC3 | > 100 | 96.8 | > 100 | > 100 | > 100 | > 100 | 74.9 | 90.8 | > 100 | 95.2 | > 100 | > 100 | > 100 |  | > 100 | 91.3 | > 100 | > 100 | > 100 |
| CC[C@]1(Cc2ccc(OC)c(OC)c2)C2CC(C(=O)OC)ON2O[C@H](OCc2ccccc2)[C@@H]1OC(C)=O (stereo partly drawn) | > 100 | > 100 | > 100 | > 100 | > 100 | > 100 | > 100 | > 100 | > 100 | > 100 | > 100 | > 100 | > 100 | > 100 | > 100 | > 100 | > 100 | > 100 | > 100 |

Source: PubChem BioAssay (NCI)
